{
  "source": "paper PMC10321280",
  "about": "“Inhibition of KMO Ameliorates Myocardial Ischemia Injury via Maintaining Mitochondrial Fusion and Fission Balance” (International Journal of Biological Sciences, 2023)",
  "biological_target": "kynurenine 3-monooxygenase (KMO; Recombinant human Kynurenine 3-hydroxylase) (Homo sapiens, UniProt O15229)",
  "sequence (O15229 whole entry)": "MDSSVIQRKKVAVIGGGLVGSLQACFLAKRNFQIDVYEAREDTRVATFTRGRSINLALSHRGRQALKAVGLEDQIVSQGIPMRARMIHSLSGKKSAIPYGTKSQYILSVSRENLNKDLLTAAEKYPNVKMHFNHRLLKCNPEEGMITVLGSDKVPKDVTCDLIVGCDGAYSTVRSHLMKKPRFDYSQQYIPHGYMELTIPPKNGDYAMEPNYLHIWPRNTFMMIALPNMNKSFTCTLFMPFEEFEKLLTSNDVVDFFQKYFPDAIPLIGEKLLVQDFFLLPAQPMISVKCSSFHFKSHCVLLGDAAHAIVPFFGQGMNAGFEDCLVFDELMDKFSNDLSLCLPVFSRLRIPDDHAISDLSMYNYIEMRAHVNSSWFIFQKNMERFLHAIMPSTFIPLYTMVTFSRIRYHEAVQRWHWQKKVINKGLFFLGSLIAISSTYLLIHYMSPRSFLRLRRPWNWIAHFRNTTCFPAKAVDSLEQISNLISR",
  "assay": "SPR (Biacore T200, KMO immobilized on CM5 chip by amine coupling, […] binding model)",
  "data": [
    {"smiles": "CC(C)=CCC[C@](C)(O[C@@H]1O[C@H](CO[C@@H]2OC[C@@H](O)[C@H](O)[C@H]2O)[C@@H](O)[C@H](O)[C@H]1O)[C@H]1CC[C@]2(C)[C@@H]1[C@H](O)C[C@@H]1[C@@]3(C)CC[C@H](O[C@@H]4O[C@H](CO)[C@@H](O)[C@H](O)[C@H]4O[C@@H]4O[C@H](CO)[C@@H](O)[C@H](O)[C@H]4O)C(C)(C)[C@@H]3CC[C@]12C", "note": "[Ginsenoside Rb3]", "values": [
      {"measurement": "Kd", "value": 1960, "unit": "nM"}
    ]}
  ]
}
